Results as given in the Kinase Knowledgebase extract (Sharma et al. 2016).

molecular target: CDK2 (UniProt P24941); assay: Enzyme Assay

How did the IC50 turn out when CNc1ccccc1C1CCCN1c1nc(NCc2ccc(OC)cc2)c2ncn(C(C)C)c2n1 (stereo not given) was run?
The IC50 was greater than 5000 nM.

CC(C)n1cnc2c(NCc3ccc(-c4ccccc4)cc3)nc(NCCO)nc21 was tested. Which IC50 did it give?
The IC50 was 3000 nM.

With COc1ccc(CNc2nc(N)nc3c2ncn3C(C)C)cc1 as the molecule, how does the IC50 read?
Its IC50 is 1000 nM.

How did the IC50 turn out when CC(C)n1cnc2c(NCC3CC3)nc(N(CCO)CCO)nc21 was run?
The IC50 was 2000 nM.

Which IC50 does the source give for CC(C)n1cnc2c(NCc3ccc(C4C=CC=CC4=S)cc3)nc(N(CCO)CCO)nc21 (stereo not given) here?
Its IC50 is 600 nM.

With CC(C)n1cnc2c(NCc3ccc(-c4ccccc4)cc3)nc(N(C)c3ccco3)nc21 as the molecule, how does the IC50 read?
The IC50 was greater than 5000 nM.

For COc1ccc(CNc2nc(NCCCC#N)nc3c2ncn3C(C)C)cc1, which IC50 is on record?
The IC50 was 1000 nM.

COc1ccc(CNc2nc(NCC(CO)CCO)nc3c2ncn3C(C)C)cc1 (stereo not given) was tested. Which IC50 did it give?
Its IC50 is greater than 5000 nM.

With CC(C)n1cnc2c(NCCCc3ccccc3)nc(N(CCO)CCO)nc21 as the molecule, how does the IC50 read?
Its IC50 is 5000 nM.

For COc1ccc(CNc2nc(NCC(O)c3c[nH]c4ccccc34)nc3c2ncn3C(C)C)cc1 (stereo not given), which IC50 is on record?
The IC50 was 2000 nM.

Which IC50 does the source give for COc1ccc(CNc2nc(NCC(O)CN)nc3c2ncn3C(C)C)cc1 (stereo not given) here?
The IC50 was 1000 nM.

For COC(=O)c1ccc(CNc2nc(Cl)nc3[nH]cnc23)cc1, which IC50 is on record?
The IC50 was greater than 5000 nM.

With CC(C)Cn1cnc2c(NCc3cccnc3)nc(Cl)nc21 as the molecule, how does the IC50 read?
Its IC50 is greater than 5000 nM.

COc1ccc(CNc2nc(NCc3cccnc3)nc3c2ncn3C(C)C)cc1 was tested. Which IC50 did it give?
The IC50 was 1000 nM.

Which IC50 does the source give for Clc1nc(NCc2ccncc2)c2ncn(C3CCCC3)c2n1 here?
The IC50 was greater than 5000 nM.
